Data published in patent US20250228865A1, “COMPOUNDS FOR ENHANCING READ THROUGH OF GENES CONTAINING PREMATURE TERMINATION CODONS AND METHODS FOR MAKING AND USING THE SAME” (Sanofi US Services Inc., priority 2022, published 2025).

What was measured:
[1] = test system: recombinant human CFTR carrying the premature stop codon (PTC) mutation R1162X; assay: CFTR-PTC mutant translation readthrough, Nanoluc tagged CFTR luminescence (R1162X cell line); type: cell-based; details: for CFTR R1162X ACTIVITY Fold 10 μM G-418: fold over 10 μM G-418, in combination with G418; for EC50: in combination with G418, 16HBE cells, read-out: CFTR R1162X ACTIVITY EC50
Method in brief: (§1)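 16HBE cells stably expressing Nanoluc-tagged human CFTR with G542X or R1162X, in medium with 3 μM VX-809, treated 48 h at 37 °C with compound (10-point, 2-fold, top 50 μM final) alone or with 10 μM G418. Live-cell Nanoluc luminescence normalised to a maximally effective G418 (125-250 μM).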

[2] = test system: recombinant human CFTR carrying the premature stop codon (PTC) mutation G542X; assay: CFTR-PTC mutant translation readthrough, Nanoluc tagged CFTR luminescence (G542X cell line); type: cell-based; details: in combination with G418, G542X cell line; for CFTR G542X ACTIVITY Fold 10 μM G-418: fold over 10 μM G-418; for EC50: 16HBE cells
Method in brief: as §1

| SMILES | CFTR R1162X ACTIVITY Fold 10 μM G-418 [1] | EC50 [1] [µM] | CFTR G542X ACTIVITY Fold 10 μM G-418 [2] | EC50 [2] [µM] |
| --- | --- | --- | --- | --- |
| OCc1ncn(-c2ncc(OCc3c(Cl)cccc3Cl)cn2)n1 | C′ (C′ = <5X) | 1 to 10 | C′ (C′ = <5X) | 1 to 10 |
| NCc1nnc(-c2ccc(OCc3c(Cl)cccc3Cl)cc2)o1 [Example 226, [5-[4-[(2,6-dichlorophenyl)methoxy]phenyl]-1,3,4-oxadiazol-2-yl]methanamine] | B′ (B′ = ≥5X to <10X) | 1 to 10 | B′ (B′ = ≥5X to <10X) | 1 to 10 |
| OC[C@H]1CN(c2ncc(OCc3c(Cl)cccc3C(F)(F)F)cn2)CCO1 | A′ (A′ = ≥10X) | < 1 | A′ (A′ = ≥10X) | < 1 |
| CC(=O)N[C@H](CO)C(=O)Nc1ccc(OCc2c(Cl)cccc2Cl)cn1 | C′ (C′ = <5X) | > 10 | C′ (C′ = <5X) | > 10 |
| O=C(O)c1ncn(-c2ccc(OCc3c(Cl)cccc3C(F)(F)F)cn2)n1 [1-[5-[[2-chloro-6-(trifluoromethyl)phenyl]methoxy]-2-pyridyl] | – | < 1 | B′ (B′ = ≥5X to <10X) | 1 to 10 |
| O=C1OCC(CO)=C1c1ccc(OCc2c(Cl)cccc2Cl)cc1 [4-[4-[(2,6-dichlorophenyl)methoxy]phenyl]-3-(hydroxymethyl)-2H-furan-5-one] | B′ (B′ = ≥5X to <10X) | 1 to 10 | B′ (B′ = ≥5X to <10X) | 1 to 10 |
| OCc1cc(-c2ccc(OCc3c(Cl)cccc3Cl)cn2)no1 [[3-[5-[(2,6-dichlorophenyl)methoxy]-2-pyridyl]isoxazol-5-yl]methanol] | A′ (A′ = ≥10X) | 1 to 10 | A′ (A′ = ≥10X) | < 1 |
| OCc1ccn(-c2ccc(OCc3c(Cl)cccc3Cl)cc2)n1 [[1-[4-[(2,6-dichlorophenyl)methoxy]phenyl]pyrazol-3-yl]methanol] | A′ (A′ = ≥10X) | 1 to 10 | A′ (A′ = ≥10X) | < 1 |
| OC1CN(c2ncc(OCc3c(Cl)cccc3Cl)cn2)C1 [1-[5-[(2,6-dichlorophenyl)methoxy]pyrimidin-2-yl]azetidin-3-ol] | A′ (A′ = ≥10X) | 1 to 10 | A′ (A′ = ≥10X) | 1 to 10 |
| N#Cc1ccn(-c2ncc(OCc3c(Cl)cccc3Cl)cn2)n1 [1-[5-[(2,6-dichlorophenyl)methoxy]pyrimidin-2-yl]pyrazole-3-carbonitrile] | B′ (B′ = ≥5X to <10X) | < 1 | A′ (A′ = ≥10X) | 1 to 10 |
| OCc1ccn(-c2ncc(OC(F)(F)c3c(Cl)cccc3Cl)cn2)n1 | – | > 10 | – | > 10 |
| OC[C@H]1CN(c2ncc(OCc3c(Cl)cccc3Cl)cn2)CCO1 [[(2R)-4-[5-[(2,6-dichlorophenyl)methoxy]pyrimidin-2-yl]morpholin-2-yl]methanol] | A′ (A′ = ≥10X) | 1 to 10 | A′ (A′ = ≥10X) | 1 to 10 |
| OCc1cn(-c2ccc(OCc3c(Cl)cccc3Cl)cn2)cn1 [[1-[5-[(2,6-dichlorophenyl)methoxy]-2-pyridyl]imidazol-4-yl]methanol] | A′ (A′ = ≥10X) | > 10 | B′ (B′ = ≥5X to <10X) | 1 to 10 |
| OC1CCCN(c2ncc(OCc3c(Cl)cccc3Cl)cn2)C1 (stereo not shown) [1-[5-[(2,6-dichlorophenyl)methoxy]pyrimidin-2-yl]piperidin-3-ol] | A′ (A′ = ≥10X) | 1 to 10 | A′ (A′ = ≥10X) | < 1 |
| NC(=O)N1CC2(C1)CN(c1ncc(OCc3c(Cl)cccc3C(F)(F)F)cn1)C2 | B′ (B′ = ≥5X to <10X) | 1 to 10 | A′ (A′ = ≥10X) | 1 to 10 |
| Cc1cccc(C(F)(F)F)c1COc1cnc(N2CC[C@H](C(N)=O)C2)nc1 | A′ (A′ = ≥10X) | 1 to 10 | A′ (A′ = ≥10X) | 1 to 10 |
| O=C(O)C1CCCN(c2ncc(OCc3c(Cl)cccc3C(F)(F)F)cn2)C1 (stereo not shown) [1-(5-{[2-chloro-6-(trifluoromethyl)phenyl]methoxy]pyrimidin-] | – | > 10 | – | 1 to 10 |
| CS(=O)(=O)NCC1CN(c2ncc(OCc3c(Cl)cccc3Cl)cn2)CCO1 (stereo not shown) | B′ (B′ = ≥5X to <10X) | 1 to 10 | A′ (A′ = ≥10X) | 1 to 10 |
| NC(=O)N1CCCN(c2ncc(OCc3c(Cl)cccc3Cl)cn2)CC1 [4-[5-[(2,6-dichlorophenyl)methoxy]pyrimidin-2-yl]-1,4-diazepane-1-carboxamide] | A′ (A′ = ≥10X) | 1 to 10 | A′ (A′ = ≥10X) | 1 to 10 |

| SMILES | CFTR R1162X ACTIVITY Fold 10 μM G-418 [1] | EC50 [1] [µM] | CFTR G542X ACTIVITY Fold 10 μM G-418 [2] | EC50 [2] [µM] |
| --- | --- | --- | --- | --- |
| O=C1CCN(c2ncc(OCc3c(Cl)cccc3C(F)(F)F)cn2)C(=O)N1 | – | > 10 | C′ (C′ = <5X) | 1 to 10 |
| Cc1cccc(C(C)(F)F)c1COc1cnc(N2CCN(C(N)=O)CC2)nc1 | A′ (A′ = ≥10X) | < 1 | A′ (A′ = ≥10X) | < 1 |
| NCC1CCCN(c2ncc(OCc3c(Cl)cccc3Cl)cn2)C1 (stereo not shown) [[1-[5-[(2,6-dichlorophenyl)methoxy]pyrimidin-2-yl]-3-piperidyl]methanamine] | A′ (A′ = ≥10X) | < 1 | A′ (A′ = ≥10X) | < 1 |
| O=C1O[C@@H](CO)CN1c1ccc(OCc2c(Cl)cccc2C(F)(F)F)cn1 | A′ (A′ = ≥10X) | 1 to 10 | A′ (A′ = ≥10X) | 1 to 10 |
| O=C1OC(CO)CN1c1cnc(OCc2c(Cl)cccc2Cl)cn1 (stereo not shown) | B′ (B′ = ≥5X to <10X) | > 10 | B′ (B′ = ≥5X to <10X) | 1 to 10 |
| FC(F)(F)c1cccc(Cl)c1COc1cnc(-n2cncn2)nc1 [5-[[2-chloro-6-(trifluoromethyl)phenyl]methoxy]-2-(1,2,4-triazol-1-yl)pyrimidine] | A′ (A′ = ≥10X) | 1 to 10 | A′ (A′ = ≥10X) | < 1 |
| OCC1CN(c2ncc(OCc3c(F)cccc3C(F)(F)F)cn2)CCO1 (stereo not shown) | A′ (A′ = ≥10X) | 1 to 10 | A′ (A′ = ≥10X) | 1 to 10 |
| O=C1OC(CO)CN1c1ccc(OCc2c(Cl)cccc2Cl)cn1 (stereo not shown) [3-[5-[(2,6-dichlorophenyl)methoxy]-2-pyridyl]-5-(hydroxymethyl)oxazolidin-2-one] | A′ (A′ = ≥10X) | 1 to 10 | A′ (A′ = ≥10X) | 1 to 10 |
| OCc1cc(-c2ncc(OCc3c(Cl)cccc3C(F)(F)F)cn2)no1 | A′ (A′ = ≥10X) | 1 to 10 | A′ (A′ = ≥10X) | < 1 |
| Cc1cccc(C(F)(F)F)c1COc1ccc(N2C(=O)NC3(CCCC3)C2=O)cc1 | B′ (B′ = ≥5X to <10X) | 1 to 10 | A′ (A′ = ≥10X) | < 1 |
| COC(=O)c1ncn(-c2ccc(OCc3c(C)cccc3C(F)(F)F)cc2)n1 | A′ (A′ = ≥10X) | 1 to 10 | A′ (A′ = ≥10X) | < 1 |
| Cc1cccc(C(F)(F)F)c1COc1cnc(N2CCS(=O)(=O)C(CO)C2)nc1 (stereo not shown) [[4-[5-[[2-methyl-6-(trifluoromethyl)phenyl]methoxy]pyrimidin] | A′ (A′ = ≥10X) | 1 to 10 | A′ (A′ = ≥10X) | 1 to 10 |
| OCCC1CCN(c2ncc(OCc3c(Cl)cccc3Cl)cn2)CC1 [2-[1-[5-[(2,6-dichlorophenyl)methoxy]pyrimidin-2-yl]-4-piperidyl]ethanol] | B′ (B′ = ≥5X to <10X) | 1 to 10 | A′ (A′ = ≥10X) | < 1 |
| OC[C@@H]1CN(c2ncc(OCc3c(Cl)cccc3C(F)(F)F)cn2)CCO1 | A′ (A′ = ≥10X) | < 1 | A′ (A′ = ≥10X) | < 1 |
| NC(=O)c1ccn(-c2ncc(OCc3c(Cl)cccc3C(F)(F)F)cn2)n1 | A′ (A′ = ≥10X) | < 1 | A′ (A′ = ≥10X) | < 1 |
| NC(=O)N1C[C@@H]2CN(c3ncc(OCc4c(Cl)cccc4Cl)cn3)C[C@@H]2C1 | B′ (B′ = ≥5X to <10X) | 1 to 10 | A′ (A′ = ≥10X) | 1 to 10 |
| Cc1cccc(C(F)(F)F)c1COc1ccc(-n2cnc(CN)c2)nc1 | A′ (A′ = ≥10X) | 1 to 10 | A′ (A′ = ≥10X) | < 1 |
| CC(C)C1NC(=O)N(c2ccc(OCc3c(Cl)cccc3C(F)(F)F)cc2)C1=O (stereo not shown) | B′ (B′ = ≥5X to <10X) | 1 to 10 | A′ (A′ = ≥10X) | < 1 |
